# Bridge positions count the residues as written; N and C are the ends. Square brackets hold non-standard residues; d marks the D form. Peptide text beside a SMILES is read from it. * marks the point of attachment. ξ: configuration not given here. Phe(4-COOH) = N[C@@H](Cc1ccc(C(=O)O)cc1)C(=O)O; Bip = N[C@@H](Cc1ccc(-c2ccccc2)cc1)C(=O)O; NH(CH2)14COOH = O=C(O)CCCCCCCCCCCCCCN*; Phe(3-Me) = Cc1cccc(C[C@H](N)C(=O)O)c1; Phe(4-F) = N[C@@H](Cc1ccc(F)cc1)C(=O)O; Val(3-OH) = CC(C)(O)[C@H](N)C(=O)O; hArg = N=C(N)NCCCC[C@H](N)C(=O)O; 4Pal = N[C@@H](Cc1ccncc1)C(=O)O; Cha = N[C@@H](CC1CCCCC1)C(=O)O; Cit = NC(=O)NCCC[C@H](N)C(=O)O; Gly(cPr) = N[C@H](C(=O)O)C1CC1; Ile(3ξ) = CCC(C)[C@H](N)C(=O)O; Thr(3ξ) = CC(O)[C@H](N)C(=O)O; 12Ado = NCCCCCCCCCCCC(=O)O; Carboxymethyl = O=C(O)C*; Nle = CCCC[C@H](N)C(=O)O; Orn = NCCC[C@H](N)C(=O)O; Aun = NCCCCCCCCCCC(=O)O; Dab = NCC[C@H](N)C(=O)O; Dap = NC[C@H](N)C(=O)O; AEEA = NCCOCCOCC(=O)O
# Molecular target: T1, PD-1/PD-L1 interaction (PE-labeled human PD-L1-Ig binding to Jurkat cell line over-expressing human PD-1) (Homo sapiens, UniProt Q15116)
# T1 construct: expressed in transfected cells; host or cells: Jurkat
# Experiment: Jurkat-PD-1 Cell Binding High-Content Screening Assay (CBA)
# Type: cell-based
# Conditions: Jurkat cell line over-expressing human PD-1; PE-labeled PD-L1-Ig 20 nM final; read-out: Jurkat hPD1-PDL1 IC50
# In short: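 Binding of fluorescent PD-L1-Ig (20 nM final) to Jurkat-PD-1 cells was measured by automated imaging after 1 h, following a 2 h compound pre-treatment at 37° C.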
# T1 sequence (Q15116 25-288): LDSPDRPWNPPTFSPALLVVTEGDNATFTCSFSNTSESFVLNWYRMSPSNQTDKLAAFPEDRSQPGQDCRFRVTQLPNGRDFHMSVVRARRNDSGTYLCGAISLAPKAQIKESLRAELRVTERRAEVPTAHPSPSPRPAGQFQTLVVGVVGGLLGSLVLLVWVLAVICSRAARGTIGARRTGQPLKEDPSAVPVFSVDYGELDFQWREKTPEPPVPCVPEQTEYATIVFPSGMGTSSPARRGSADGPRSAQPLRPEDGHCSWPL
row,IC50 [nM],Structure (SMILES)
1,119,Cc1cccc(C[C@@H]2NC(=O)[C@H](CC(=O)O)NC(=O)[C@H](Cc3ccc(OCC(=O)O)cc3)NC(=O)[C@H](C)NC(=O)CSC[C@@H](C(=O)N[C@@H](CCN)C(=O)NCCOCCOCC(=O)NCCOCCOCC(=O)NCCCCCCCCCCCCCCC(=O)O)NC(=O)[C@H](Cc3cnc[nH]3)NC(=O)[C@H](C(C)(C)O)NC(=O)[C@H](CC3CCCCC3)NC(=O)[C@H](CCN)NC(=O)[C@@H](CC(C)C)NC(=O)[C@H](CCCN)NC(=O)[C@H](Cc3ccc(C(=O)O)cc3)NC(=O)[C@H](Cc3ccc(-c4ccccc4)cc3)NC(=O)[C@H](Cc3ccc(C(=O)O)cc3)NC2=O)c1 [Compound 3855] ({CH2CO}-AY(Carboxymethyl)D[Phe(3-Me)][Phe(4-COOH)][Bip][Phe(4-COOH)][Orn][dL][Dab][Cha][Val(3-OH)]HC[Dab][AEEA][AEEA]-{NH(CH2)14COOH}; thioether N-14)
2,70.3,Cc1cccc(C[C@@H]2NC(=O)[C@H](CC(=O)O)NC(=O)[C@H](Cc3ccc(OCC(=O)O)cc3)NC(=O)[C@H](Cc3ccccc3)NC(=O)CSC[C@@H](C(=O)N[C@@H](CCN)C(=O)NCCCCCCCCCCC(=O)O)NC(=O)[C@H](CO)NC(=O)[C@H](Cc3cnc[nH]3)NC(=O)[C@H](CC3CCCCC3)NC(=O)[C@H](CCN)NC(=O)[C@@H](CC(C)C)NC(=O)[C@H](CCCN)NC(=O)[C@H](Cc3ccc(OCC(=O)O)cc3)NC(=O)[C@H](Cc3ccc(-c4ccccc4)cc3)NC(=O)[C@H](Cc3ccc(C(=O)O)cc3)NC2=O)c1 [Compound 3706] ({CH2CO}-FY(Carboxymethyl)D[Phe(3-Me)][Phe(4-COOH)][Bip]Y(Carboxymethyl)[Orn][dL][Dab][Cha]HSC[Dab][Aun]-OH; thioether N-14)
3,9,Cc1cccc(C[C@@H]2NC(=O)[C@H](CC(=O)O)NC(=O)[C@H](Cc3ccc(OCC(=O)O)cc3)NC(=O)[C@H](C3CC3)NC(=O)CSC[C@@H](C(=O)N[C@@H](CCN)C(=O)NCCCCCCCCCCC(=O)O)NC(=O)[C@H](CO)NC(=O)[C@H](C(C)(C)O)NC(=O)[C@H](CC3CCCCC3)NC(=O)[C@H](CCN)NC(=O)[C@@H](CC(C)C)NC(=O)[C@H](CCCN)NC(=O)[C@H](Cc3ccc(OCC(=O)O)cc3)NC(=O)[C@H](Cc3ccc(-c4ccccc4)cc3)NC(=O)[C@H](Cc3ccc(OCC(=O)O)cc3)NC2=O)c1 [Compound 2211] ({CH2CO}-[Gly(cPr)]Y(Carboxymethyl)D[Phe(3-Me)]Y(Carboxymethyl)[Bip]Y(Carboxymethyl)[Orn][dL][Dab][Cha][Val(3-OH)]SC[Dab][Aun]-OH; thioether N-14)
4,18.3,Cc1cccc(C[C@@H]2NC(=O)[C@H](CC(=O)O)NC(=O)[C@H](Cc3ccc(OCC(=O)O)cc3)NC(=O)[C@H](CCCNC(=N)N)NC(=O)CSC[C@@H](C(=O)N[C@@H](CCN)C(=O)NCCCCCCCCCCC(=O)O)NC(=O)[C@H](C(C)O)NC(=O)[C@H](C(C)C)NC(=O)[C@H](CC3CCCCC3)NC(=O)[C@H](CCN)NC(=O)[C@@H](CC(C)C)NC(=O)[C@H](CCCNC(N)=O)NC(=O)[C@H](Cc3ccc(OCC(=O)O)cc3)NC(=O)[C@H](Cc3ccc(-c4ccccc4)cc3)NC(=O)[C@H](C(C)C)NC2=O)c1 (stereo partly drawn) [Compound 3450] ({CH2CO}-RY(Carboxymethyl)D[Phe(3-Me)]V[Bip]Y(Carboxymethyl)[Cit][dL][Dab][Cha]V[Thr(3ξ)]C[Dab][Aun]-OH; thioether N-14)
5,59.6,Cc1cccc(C[C@@H]2NC(=O)[C@H](CC(=O)O)NC(=O)[C@H](Cc3ccc(OCC(=O)O)cc3)NC(=O)[C@H](CCCNC(=N)N)NC(=O)CSC[C@@H](C(=O)NCCOCCOCC(=O)NCCCCCCCCCCC(=O)O)NC(=O)[C@H](C(C)O)NC(=O)[C@H](C(C)C)NC(=O)[C@H](CC3CCCCC3)NC(=O)[C@H](CCN)NC(=O)[C@@H](CC(C)C)NC(=O)[C@H](CCCN)NC(=O)[C@H](Cc3ccc(OCC(=O)O)cc3)NC(=O)[C@H](Cc3ccc(-c4ccccc4)cc3)NC(=O)[C@H](Cc3ccc(C(=O)O)cc3)NC2=O)c1 (stereo partly drawn) [Compound 3479] ({CH2CO}-RY(Carboxymethyl)D[Phe(3-Me)][Phe(4-COOH)][Bip]Y(Carboxymethyl)[Orn][dL][Dab][Cha]V[Thr(3ξ)]C[AEEA][Aun]-OH; thioether N-14)
6,8,Cc1cccc(C[C@@H]2NC(=O)[C@H](CC(=O)O)NC(=O)[C@H](Cc3ccc(OCC(=O)O)cc3)NC(=O)[C@H](CN)NC(=O)CSC[C@@H](C(=O)N[C@@H](CCN)C(=O)NCCOCCOCC(=O)NCCCCCCCCCCC(=O)O)NC(=O)[C@H](CN)NC(=O)[C@H](C(C)C)NC(=O)[C@H](CC3CCCCC3)NC(=O)[C@H](CCN)NC(=O)[C@@H](CC(C)C)NC(=O)[C@H](CCCN)NC(=O)[C@H](C(C)C)NC(=O)[C@H](Cc3ccc(-c4ccccc4)cc3)NC(=O)[C@H](C(C)C)NC2=O)c1 [Compound 2550] ({CH2CO}-[Dap]Y(Carboxymethyl)D[Phe(3-Me)]V[Bip]V[Orn][dL][Dab][Cha]V[Dap]C[Dab][AEEA][Aun]-OH; thioether N-14)
7,12.2,CCC(C)[C@@H]1NC(=O)[C@H](Cc2ccc(-c3ccccc3)cc2)NC(=O)[C@H](C(C)C)NC(=O)[C@H](Cc2c[nH]c3ccccc23)NC(=O)[C@H](CC(=O)O)NC(=O)[C@H](Cc2ccc(C(=O)O)cc2)NC(=O)[C@H](Cc2ccncc2)NC(=O)CSC[C@@H](C(=O)N[C@H](CO)C(=O)NCCOCCOCC(=O)N[C@@H](CCCN)C(=O)NCCCCCCCCCCC(=O)O)NC(=O)[C@H](CO)NC(=O)[C@H](C(C)C)NC(=O)[C@H](CC2CCCCC2)NC(=O)[C@H](CCN)NC(=O)[C@@H](CC(C)C)NC(=O)[C@H](CCCN)NC1=O (stereo partly drawn) [Compound 3059] ({CH2CO}-[4Pal][Phe(4-COOH)]DWV[Bip][Ile(3ξ)][Orn][dL][Dab][Cha]VSC[dS][AEEA][Orn][Aun]-OH; thioether N-14)
8,821,Cc1cccc(C[C@@H]2NC(=O)[C@H](CC(=O)O)NC(=O)[C@H](Cc3ccc(OCC(=O)O)cc3)NC(=O)[C@H](CCCCNC(=N)N)NC(=O)CSC[C@@H](C(=O)NCC(=O)N[C@@H](CCC(=O)O)C(=O)NCCCCCCCCCCCC(=O)O)NC(=O)[C@H](CO)NC(=O)[C@H](C(C)C)NC(=O)[C@H](CC3CCCCC3)NC(=O)[C@H](CCN)NC(=O)[C@@H](CC(C)C)NC(=O)[C@H](CCCN)NC(=O)[C@H](CCCNC(N)=O)NC(=O)[C@H](Cc3ccc(-c4ccccc4)cc3)NC(=O)[C@H](C(C)C)NC2=O)c1 [Compound 3183] ({CH2CO}-[hArg]Y(Carboxymethyl)D[Phe(3-Me)]V[Bip][Cit][Orn][dL][Dab][Cha]VSCGE[12Ado]-OH; thioether N-14)
9,71.6,Cc1cccc(C[C@@H]2NC(=O)[C@H](CC(=O)O)NC(=O)[C@H](Cc3ccc(OCC(=O)O)cc3)NC(=O)[C@H](CCCNC(=N)N)NC(=O)CSC[C@@H](C(=O)NCCOCCOCC(=O)NCCCCCCCCCCC(=O)O)NC(=O)[C@H](C(C)O)NC(=O)[C@H](C(C)C)NC(=O)[C@H](CC3CCCCC3)NC(=O)[C@H](CCN)NC(=O)[C@@H](CC(C)C)NC(=O)[C@H](CCCNC(N)=O)NC(=O)[C@H](Cc3ccc(OCC(=O)O)cc3)NC(=O)[C@H](Cc3ccc(-c4ccccc4)cc3)NC(=O)[C@H](Cc3ccc(OCC(=O)O)cc3)NC2=O)c1 (stereo partly drawn) [Compound 3481] ({CH2CO}-RY(Carboxymethyl)D[Phe(3-Me)]Y(Carboxymethyl)[Bip]Y(Carboxymethyl)[Cit][dL][Dab][Cha]V[Thr(3ξ)]C[AEEA][Aun]-OH; thioether N-14)
10,238,Cc1cccc(C[C@@H]2NC(=O)[C@H](CC(=O)O)NC(=O)[C@H](Cc3ccc(OCC(=O)O)cc3)NC(=O)[C@@H](CCCNC(=N)N)NC(=O)CSC[C@@H](C(=O)N[C@@H](CCN)C(=O)NCCCCCCCCCCC(=O)O)NC(=O)[C@H](CO)NC(=O)[C@H](C(C)(C)O)NC(=O)[C@H](CC3CCCCC3)NC(=O)[C@H](CCN)NC(=O)[C@@H](CC(C)C)NC(=O)[C@H](CCCN)NC(=O)[C@H](Cc3ccc(OCC(=O)O)cc3)NC(=O)[C@H](Cc3ccc(-c4ccccc4)cc3)NC(=O)[C@H](Cc3ccc(OCC(=O)O)cc3)NC2=O)c1 [Compound 2232] ({CH2CO}-[dR]Y(Carboxymethyl)D[Phe(3-Me)]Y(Carboxymethyl)[Bip]Y(Carboxymethyl)[Orn][dL][Dab][Cha][Val(3-OH)]SC[Dab][Aun]-OH; thioether N-14)
11,8.8,CCCC[C@@H]1NC(=O)CSC[C@@H](C(=O)N[C@@H](CCN)C(=O)NCCCCCCCCCCC(=O)O)NC(=O)[C@H](CO)NC(=O)[C@H](C(C)(C)O)NC(=O)[C@H](CC2CCCCC2)NC(=O)[C@H](CCN)NC(=O)[C@@H](CC(C)C)NC(=O)[C@H](CCCN)NC(=O)[C@H](Cc2ccc(OCC(=O)O)cc2)NC(=O)[C@H](Cc2ccc(-c3ccccc3)cc2)NC(=O)[C@H](Cc2ccc(OCC(=O)O)cc2)NC(=O)[C@H](Cc2cccc(C)c2)NC(=O)[C@H](CC(=O)O)NC(=O)[C@H](Cc2ccc(OCC(=O)O)cc2)NC1=O [Compound 2210] ({CH2CO}-[Nle]Y(Carboxymethyl)D[Phe(3-Me)]Y(Carboxymethyl)[Bip]Y(Carboxymethyl)[Orn][dL][Dab][Cha][Val(3-OH)]SC[Dab][Aun]-OH; thioether N-14)
12,128,Cc1cccc(C[C@@H]2NC(=O)[C@H](CC(=O)O)NC(=O)[C@H](Cc3ccc(F)cc3)NC(=O)[C@H](Cc3ccncc3)NC(=O)CSC[C@@H](C(=O)N[C@@H](CCN)C(=O)NCCCCCCCCCCC(=O)O)NC(=O)[C@H](CO)NC(=O)[C@H](C(C)(C)O)NC(=O)[C@H](CC3CCCCC3)NC(=O)[C@H](Cc3c[nH]cn3)NC(=O)[C@@H](CC(C)C)NC(=O)[C@H](CCCN)NC(=O)[C@H](Cc3ccc(OCC(=O)O)cc3)NC(=O)[C@H](Cc3ccc(-c4ccccc4)cc3)NC(=O)[C@H](Cc3ccc(OCC(=O)O)cc3)NC2=O)c1 [Compound 3734] ({CH2CO}-[4Pal][Phe(4-F)]D[Phe(3-Me)]Y(Carboxymethyl)[Bip]Y(Carboxymethyl)[Orn][dL]H[Cha][Val(3-OH)]SC[Dab][Aun]-OH; thioether N-14)
